Values quoted from earlier work as cited in US8501717B2, “Methods to treat and/or prevent mucositis” (Merck, Sharp & Dohme Corp., priority 2007, dated 2013).

Settings: less than the effect of an equal dose of calcitriol

Compound: C=C1/C(=C\C=C2/CCC[C@]3(C)C([C@H](C)CC#CC(C)(C)O)=CC[C@@H]23)C[C@@H](O)C[C@@H]1O [Ro23-7553]
- hypercalcemic effect compared to calcitriol (in words): reduced hypercalcemic effect
